In ChEMBL document CHEMBL1142906, “Structure-activity relationships of novel piperazines as antagonists for the melanocortin-4 receptor” (Bioorg Med Chem, 2007):

Key:
[1] = molecular target: Delta-type opioid receptor (Rattus norvegicus, UniProt P33533); assay: Displacement of [3H]DPDPE from delta opiate receptor in rat brain membranes; type: cell membranes
Histamine H1 receptor = Histamine H1 receptor (Rattus norvegicus, UniProt P31390); assay: Displacement of [3H]pyrilamine from histamine H1 receptor in rat brain membranes; type: cell membranes
[2] = molecular target: T1, Adrenergic receptor alpha-1 (Rattus norvegicus, UniProt P15823+P23944+P43140); assay: Displacement of [3H]prazosin from adrenergic alpha-1 receptor in rat cortical membranes; type: cell membranes, Membrane
T1 sequence (P15823 whole entry): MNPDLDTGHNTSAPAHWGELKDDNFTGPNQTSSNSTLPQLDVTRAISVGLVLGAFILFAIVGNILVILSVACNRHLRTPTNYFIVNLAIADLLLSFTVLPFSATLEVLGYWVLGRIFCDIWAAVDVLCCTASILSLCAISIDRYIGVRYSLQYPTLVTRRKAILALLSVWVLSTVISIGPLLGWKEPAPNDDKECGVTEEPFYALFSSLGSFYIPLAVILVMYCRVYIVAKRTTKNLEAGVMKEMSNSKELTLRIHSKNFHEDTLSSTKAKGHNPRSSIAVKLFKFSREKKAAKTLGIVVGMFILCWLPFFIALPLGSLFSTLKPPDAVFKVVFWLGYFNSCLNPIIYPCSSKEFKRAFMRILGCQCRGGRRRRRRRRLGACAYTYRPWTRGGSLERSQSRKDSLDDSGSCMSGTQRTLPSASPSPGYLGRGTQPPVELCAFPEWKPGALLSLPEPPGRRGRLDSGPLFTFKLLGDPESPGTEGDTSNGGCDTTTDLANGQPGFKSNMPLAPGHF
T1 sequence (P23944 whole entry): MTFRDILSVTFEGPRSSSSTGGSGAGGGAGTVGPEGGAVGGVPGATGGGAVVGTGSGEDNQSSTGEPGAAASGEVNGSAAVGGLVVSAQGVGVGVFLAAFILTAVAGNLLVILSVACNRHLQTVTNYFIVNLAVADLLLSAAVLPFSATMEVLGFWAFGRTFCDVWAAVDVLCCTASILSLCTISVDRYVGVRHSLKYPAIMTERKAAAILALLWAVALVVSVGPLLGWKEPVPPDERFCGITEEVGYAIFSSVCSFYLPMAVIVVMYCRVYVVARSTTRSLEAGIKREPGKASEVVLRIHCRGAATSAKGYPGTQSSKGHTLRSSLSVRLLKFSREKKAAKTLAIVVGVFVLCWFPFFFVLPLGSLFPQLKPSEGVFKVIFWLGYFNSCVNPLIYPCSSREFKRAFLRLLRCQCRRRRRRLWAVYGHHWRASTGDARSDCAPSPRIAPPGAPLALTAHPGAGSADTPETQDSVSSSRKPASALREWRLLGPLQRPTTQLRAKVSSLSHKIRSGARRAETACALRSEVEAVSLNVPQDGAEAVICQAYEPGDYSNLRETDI
T1 sequence (P43140 whole entry): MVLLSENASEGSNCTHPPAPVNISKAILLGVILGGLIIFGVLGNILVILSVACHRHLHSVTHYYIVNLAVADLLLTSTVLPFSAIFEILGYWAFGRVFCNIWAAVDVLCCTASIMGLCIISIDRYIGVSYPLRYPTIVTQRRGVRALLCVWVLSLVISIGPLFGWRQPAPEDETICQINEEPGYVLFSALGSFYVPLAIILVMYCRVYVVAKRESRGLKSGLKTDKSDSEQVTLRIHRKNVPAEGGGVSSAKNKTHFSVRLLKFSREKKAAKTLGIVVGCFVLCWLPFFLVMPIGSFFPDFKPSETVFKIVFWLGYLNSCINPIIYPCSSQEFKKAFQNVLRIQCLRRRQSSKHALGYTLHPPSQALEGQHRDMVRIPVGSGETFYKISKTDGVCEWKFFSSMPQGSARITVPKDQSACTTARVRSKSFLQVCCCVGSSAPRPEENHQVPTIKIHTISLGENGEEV

[3] = molecular target: Sodium-dependent serotonin transporter (Rattus norvegicus, UniProt P31652); assay: Displacement of [3H][…] from SET in rat cortical membranes; type: cell membranes, Membrane
D(2) dopamine receptor = D(2) dopamine receptor (Rattus norvegicus, UniProt P61169); assay: Displacement of [3H]raclopride from dopamine D2 receptor in rat striatal membranes; type: cell membranes, Membrane
Melanocortin receptor 4 = Melanocortin receptor 4 (Homo sapiens, UniProt P32245); assay: Displacement of [125I]Nle4-D-Phe7-alpha-MSH from human MC4 receptor expressed in COS1 cells; type: cell-based, COS-1
Mu-type opioid receptor = Mu-type opioid receptor (Rattus norvegicus, UniProt P33535); assay: Displacement of [3H]DAMGO from mu opiate receptor in rat brain membranes; type: cell membranes
[4] = molecular target: Norepinephrine transporter (Rattus norvegicus, UniProt Q9WTR4); assay: Displacement of [3H]nisoxetine from NET in rat cortical membranes; type: cell membranes, Membrane
Sequence of Norepinephrine transporter (Q9WTR4 whole entry): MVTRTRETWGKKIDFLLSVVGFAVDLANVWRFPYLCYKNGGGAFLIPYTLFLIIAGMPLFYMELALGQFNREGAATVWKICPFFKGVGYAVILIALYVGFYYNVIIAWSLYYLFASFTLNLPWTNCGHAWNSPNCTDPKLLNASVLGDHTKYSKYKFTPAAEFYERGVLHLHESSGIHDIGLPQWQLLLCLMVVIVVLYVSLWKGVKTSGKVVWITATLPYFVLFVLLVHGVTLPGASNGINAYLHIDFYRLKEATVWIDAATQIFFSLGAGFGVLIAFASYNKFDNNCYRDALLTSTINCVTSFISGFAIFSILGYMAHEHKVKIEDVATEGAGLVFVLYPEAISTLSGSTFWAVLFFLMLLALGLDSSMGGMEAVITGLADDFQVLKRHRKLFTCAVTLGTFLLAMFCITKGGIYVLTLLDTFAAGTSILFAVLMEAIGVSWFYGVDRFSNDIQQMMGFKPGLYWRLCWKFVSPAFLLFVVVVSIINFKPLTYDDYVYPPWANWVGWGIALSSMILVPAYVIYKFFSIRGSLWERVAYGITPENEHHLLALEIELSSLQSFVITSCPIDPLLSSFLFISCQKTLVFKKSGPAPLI

Sequence of Delta-type opioid receptor (P33533 whole entry): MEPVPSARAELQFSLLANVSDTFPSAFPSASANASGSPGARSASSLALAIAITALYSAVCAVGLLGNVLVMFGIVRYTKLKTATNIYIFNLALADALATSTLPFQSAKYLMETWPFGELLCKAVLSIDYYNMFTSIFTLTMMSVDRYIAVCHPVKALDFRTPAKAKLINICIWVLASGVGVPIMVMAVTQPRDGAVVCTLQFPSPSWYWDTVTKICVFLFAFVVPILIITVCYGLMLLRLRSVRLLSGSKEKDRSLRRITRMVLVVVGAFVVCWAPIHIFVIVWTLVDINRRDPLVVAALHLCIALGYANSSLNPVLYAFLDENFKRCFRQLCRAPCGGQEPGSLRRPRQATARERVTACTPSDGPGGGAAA
Sequence of Mu-type opioid receptor (P33535 whole entry): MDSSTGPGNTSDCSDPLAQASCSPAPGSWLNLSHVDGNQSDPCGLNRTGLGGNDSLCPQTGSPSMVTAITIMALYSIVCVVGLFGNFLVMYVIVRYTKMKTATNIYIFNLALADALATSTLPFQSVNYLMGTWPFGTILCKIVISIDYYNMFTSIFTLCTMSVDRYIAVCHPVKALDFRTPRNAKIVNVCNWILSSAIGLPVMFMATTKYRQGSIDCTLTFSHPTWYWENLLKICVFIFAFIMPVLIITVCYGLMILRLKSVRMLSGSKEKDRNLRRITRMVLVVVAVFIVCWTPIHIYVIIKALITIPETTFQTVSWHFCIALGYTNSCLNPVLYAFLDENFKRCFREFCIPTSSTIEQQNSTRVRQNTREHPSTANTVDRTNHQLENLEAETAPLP
Sequence of Melanocortin receptor 4 (P32245 whole entry): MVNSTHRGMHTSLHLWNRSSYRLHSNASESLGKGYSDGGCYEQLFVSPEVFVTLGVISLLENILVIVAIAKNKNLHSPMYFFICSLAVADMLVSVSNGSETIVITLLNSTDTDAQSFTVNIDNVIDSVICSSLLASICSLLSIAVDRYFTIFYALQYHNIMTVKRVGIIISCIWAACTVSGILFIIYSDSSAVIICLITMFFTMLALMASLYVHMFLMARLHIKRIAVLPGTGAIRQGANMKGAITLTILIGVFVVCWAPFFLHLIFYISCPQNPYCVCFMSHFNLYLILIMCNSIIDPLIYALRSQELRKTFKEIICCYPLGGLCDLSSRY
Sequence of D(2) dopamine receptor (P61169 whole entry): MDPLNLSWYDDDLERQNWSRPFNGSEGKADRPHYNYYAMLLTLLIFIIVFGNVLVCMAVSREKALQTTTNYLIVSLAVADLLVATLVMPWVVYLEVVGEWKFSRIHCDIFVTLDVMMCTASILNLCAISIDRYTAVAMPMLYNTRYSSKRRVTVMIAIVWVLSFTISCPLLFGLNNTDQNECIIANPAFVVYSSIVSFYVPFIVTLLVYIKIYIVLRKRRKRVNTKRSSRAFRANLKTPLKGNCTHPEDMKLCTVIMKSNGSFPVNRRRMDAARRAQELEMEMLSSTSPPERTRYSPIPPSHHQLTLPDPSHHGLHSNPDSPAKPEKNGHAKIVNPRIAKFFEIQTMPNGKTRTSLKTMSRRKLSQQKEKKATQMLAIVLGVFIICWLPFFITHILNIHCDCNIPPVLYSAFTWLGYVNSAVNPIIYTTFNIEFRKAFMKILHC
Sequence of Histamine H1 receptor (P31390 whole entry): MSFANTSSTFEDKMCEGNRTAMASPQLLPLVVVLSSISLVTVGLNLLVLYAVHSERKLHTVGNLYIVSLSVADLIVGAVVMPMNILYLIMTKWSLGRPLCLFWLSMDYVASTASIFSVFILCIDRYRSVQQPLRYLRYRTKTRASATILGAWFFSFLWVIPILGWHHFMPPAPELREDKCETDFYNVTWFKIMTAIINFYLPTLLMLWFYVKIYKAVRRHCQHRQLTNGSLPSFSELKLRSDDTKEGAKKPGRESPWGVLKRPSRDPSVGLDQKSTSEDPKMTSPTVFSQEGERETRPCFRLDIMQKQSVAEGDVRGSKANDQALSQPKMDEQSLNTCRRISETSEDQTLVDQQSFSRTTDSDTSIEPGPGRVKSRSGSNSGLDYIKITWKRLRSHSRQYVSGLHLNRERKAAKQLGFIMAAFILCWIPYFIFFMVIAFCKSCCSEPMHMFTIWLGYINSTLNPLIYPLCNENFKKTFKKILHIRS
Sequence of Sodium-dependent serotonin transporter (P31652 whole entry): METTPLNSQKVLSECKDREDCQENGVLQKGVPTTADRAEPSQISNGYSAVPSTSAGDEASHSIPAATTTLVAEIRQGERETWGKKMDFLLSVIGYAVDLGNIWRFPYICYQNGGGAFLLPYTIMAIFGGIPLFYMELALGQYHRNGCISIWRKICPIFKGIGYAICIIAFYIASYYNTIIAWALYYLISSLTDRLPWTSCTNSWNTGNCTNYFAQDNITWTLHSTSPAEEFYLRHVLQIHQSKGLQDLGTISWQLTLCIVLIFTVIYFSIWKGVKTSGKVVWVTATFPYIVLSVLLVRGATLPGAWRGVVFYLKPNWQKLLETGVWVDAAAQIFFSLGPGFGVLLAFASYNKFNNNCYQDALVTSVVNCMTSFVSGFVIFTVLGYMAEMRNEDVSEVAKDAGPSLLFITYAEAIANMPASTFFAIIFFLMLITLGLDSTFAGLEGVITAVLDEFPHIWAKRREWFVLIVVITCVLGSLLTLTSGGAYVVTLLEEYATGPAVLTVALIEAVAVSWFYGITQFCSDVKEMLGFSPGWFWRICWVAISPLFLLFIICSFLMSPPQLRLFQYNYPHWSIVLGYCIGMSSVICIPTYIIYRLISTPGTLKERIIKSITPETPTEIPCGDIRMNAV

## Cc1cccc(-c2ccccc2)c1CCCN1CCN(CC(c2ccc(F)cc2)N2CCN(C(C)C)CC2)CC1 (racemic)
[1]
  IC50: > 10 µM
Histamine H1 receptor
  IC50: > 1 µM
[2]
  IC50: > 1 µM
[3]
  IC50: 4.96 µM
D(2) dopamine receptor
  IC50: > 1 µM
Melanocortin receptor 4
  IC50: 0.0243 µM
Mu-type opioid receptor
  IC50: > 10 µM
[4]
  IC50: 2.4 µM

## CC(C)N1CCN(C(CN2CCN(CCCc3ccc(F)cc3-c3ccccc3)CC2)c2ccc(F)cc2)CC1 (racemic)
[1]
  IC50: > 10 µM
Histamine H1 receptor
  IC50: > 1 µM
[2]
  IC50: > 1 µM
[3]
  IC50: 1.37 µM
D(2) dopamine receptor
  IC50: > 1 µM
Melanocortin receptor 4
  IC50: 0.033 µM
Mu-type opioid receptor
  IC50: > 10 µM
[4]
  IC50: 1.85 µM

## CC(C)N1CCN(C(CN2CCN(CCCc3cc(F)ccc3-c3ccccc3)CC2)c2ccc(F)cc2)CC1 (racemic)
[1]
  IC50: > 10 µM
Histamine H1 receptor
  IC50: > 1 µM
[2]
  IC50: > 1 µM
[3]
  IC50: 1.17 µM
D(2) dopamine receptor
  IC50: 0.721 µM
Melanocortin receptor 4
  IC50: 0.0271 µM
Mu-type opioid receptor
  IC50: > 10 µM
[4]
  IC50: 0.369 µM

## CC(C)N1CCN(C(CN2CCN(CCCc3cccc(F)c3-c3ccccc3)CC2)c2ccc(F)cc2)CC1 (racemic)
[1]
  IC50: > 10 µM
Histamine H1 receptor
  IC50: > 1 µM
[2]
  IC50: > 1 µM
[3]
  IC50: 3.4 µM
D(2) dopamine receptor
  IC50: > 1 µM
Melanocortin receptor 4
  IC50: 0.023 µM
Mu-type opioid receptor
  IC50: > 10 µM
[4]
  IC50: 2.83 µM

## CC(C)N1CCN(C(CN2CCN(CCCc3ccccc3-c3cccc(F)c3)CC2)c2ccc(F)cc2)CC1 (racemic)
[1]
  IC50: > 10 µM
Histamine H1 receptor
  IC50: > 1 µM
[2]
  IC50: > 1 µM
[3]
  IC50: 2.11 µM
D(2) dopamine receptor
  IC50: > 1 µM
Melanocortin receptor 4
  IC50: 0.0236 µM
Mu-type opioid receptor
  IC50: > 10 µM
[4]
  IC50: 0.226 µM

## CC(C)N1CCN(C(CN2CCN(CCCc3c(F)cccc3-c3ccccc3)CC2)c2ccc(F)cc2)CC1 (racemic)
[1]
  IC50: > 10 µM
Histamine H1 receptor
  IC50: > 1 µM
[2]
  IC50: > 1 µM
[3]
  IC50: 1.46 µM
D(2) dopamine receptor
  IC50: > 1 µM
Melanocortin receptor 4
  IC50: 0.0117 µM
Mu-type opioid receptor
  IC50: > 10 µM
[4]
  IC50: 0.206 µM

## CC(C)N1CCN(C(CN2CCN(CCCc3ccccc3-c3ccc(F)cc3)CC2)c2ccc(F)cc2)CC1 (racemic)
[1]
  IC50: > 10 µM
Histamine H1 receptor
  IC50: > 1 µM
[2]
  IC50: > 1 µM
[3]
  IC50: 1.34 µM
D(2) dopamine receptor
  IC50: 0.721 µM
Melanocortin receptor 4
  IC50: 0.0105 µM
Mu-type opioid receptor
  IC50: > 10 µM
[4]
  IC50: 0.29 µM

## CC(C)N1CCN(C(CN2CCN(CCCc3ccccc3-c3ccccc3)CC2)c2ccc(F)cc2)CC1 (racemic)
[1]
  IC50: > 10 µM
Histamine H1 receptor
  IC50: > 1 µM
[2]
  IC50: > 1 µM
[3]
  IC50: 3.13 µM
D(2) dopamine receptor
  IC50: 0.645 µM
Melanocortin receptor 4
  IC50: 0.0112 µM
Mu-type opioid receptor
  IC50: > 10 µM
[4]
  IC50: 0.671 µM

## CC(C)N1CCN(C(CN2CCN(CCCc3c(Cl)cccc3-c3ccccc3)CC2)c2ccc(F)cc2)CC1 (racemic)
[1]
  IC50: > 10 µM
Histamine H1 receptor
  IC50: > 1 µM
[2]
  IC50: > 1 µM
[3]
  IC50: 1.29 µM
D(2) dopamine receptor
  IC50: > 1 µM
Melanocortin receptor 4
  IC50: 0.0271 µM
Mu-type opioid receptor
  IC50: > 10 µM
[4]
  IC50: 1.77 µM
